# Data reported in US20260139005A1 (priority 2022, published 2026).
# Where a SMILES comes first, the peptide text is derived from it.
# Tested on: Fusarium graminearum
# Details: not given
row,Compound,MIC (μM) Fusarium graminearum
1,TKPCQSDKDCKKFACAAAAVPKCINGFCKCVR [NCR13_AlaV3],Inactive
2,TKPCQSDKDCAAAACRKPKVPKCINGFCKCVR [NCR13_AlaV2],Inactive

# Same assay, conditions: 48 h
row,Compound,MIC (μM) Fusarium graminearum [µM]
1,CC(C)[C@H](NC(=O)[C@H](CS)NC(=O)[C@H](CCCCN)NC(=O)[C@H](CS)NC(=O)[C@H](C)NC(=O)[C@H](C)NC(=O)[C@H](C)NC(=O)[C@H](C)NC(=O)[C@H](CS)NC(=O)[C@H](CCCCN)NC(=O)[C@@H]1CCCN1C(=O)[C@@H](NC(=O)[C@H](CCCCN)NC(=O)[C@@H]1CCCN1C(=O)[C@H](CCCCN)NC(=O)[C@H](CCCNC(=N)N)NC(=O)[C@H](CS)NC(=O)[C@H](C)NC(=O)[C@H](Cc1ccccc1)NC(=O)[C@H](CCCCN)NC(=O)[C@H](CCCCN)NC(=O)[C@H](CS)NC(=O)[C@H](CC(=O)O)NC(=O)[C@H](CCCCN)NC(=O)[C@H](CC(=O)O)NC(=O)[C@H](CO)NC(=O)[C@H](CCC(N)=O)NC(=O)[C@H](CS)NC(=O)[C@@H]1CCCN1C(=O)[C@H](CCCCN)NC(=O)[C@@H](N)[C@@H](C)O)C(C)C)C(=O)N[C@@H](CCCNC(=N)N)C(=O)O [NCR13_AlaV5] (H-TKPCQSDKDCKKFACRKPKVPKCAAAACKCVR-OH; N-terminus and C-terminus assumed),6
2,CC[C@H](C)[C@H](NC(=O)[C@H](CS)NC(=O)[C@H](CCCCN)NC(=O)[C@@H]1CCCN1C(=O)[C@@H](NC(=O)[C@H](CCCCN)NC(=O)[C@@H]1CCCN1C(=O)[C@H](CCCCN)NC(=O)[C@H](CCCNC(=N)N)NC(=O)[C@H](CS)NC(=O)[C@H](C)NC(=O)[C@H](Cc1ccccc1)NC(=O)[C@H](CCCCN)NC(=O)[C@H](CCCCN)NC(=O)[C@H](CS)NC(=O)[C@H](C)NC(=O)[C@H](C)NC(=O)[C@H](C)NC(=O)[C@H](C)NC(=O)[C@H](C)NC(=O)[C@H](CS)NC(=O)[C@@H]1CCCN1C(=O)[C@H](CCCCN)NC(=O)[C@@H](N)[C@@H](C)O)C(C)C)C(=O)N[C@@H](CC(N)=O)C(=O)NCC(=O)N[C@@H](Cc1ccccc1)C(=O)N[C@@H](CS)C(=O)N[C@@H](CCCCN)C(=O)N[C@@H](CS)C(=O)N[C@H](C(=O)N[C@@H](CCCNC(=N)N)C(=O)O)C(C)C [NCR13_AlaV1] (H-TKPCAAAAACKKFACRKPKVPKCINGFCKCVR-OH; N-terminus and C-terminus assumed),6
3,"CC[C@H](C)[C@H](NC(=O)[C@H](CS)NC(=O)[C@H](CCCCN)NC(=O)[C@@H]1CCCN1C(=O)[C@@H](NC(=O)[C@H](CCCCN)NC(=O)[C@@H]1CCCN1C(=O)[C@H](CCCCN)NC(=O)[C@H](CCCNC(=N)N)NC(=O)[C@H](CS)NC(=O)[C@H](C)NC(=O)[C@H](Cc1ccccc1)NC(=O)[C@H](CCCCN)NC(=O)[C@H](CCCCN)NC(=O)[C@H](CS)NC(=O)[C@H](CC(=O)O)NC(=O)[C@H](CCCCN)NC(=O)[C@H](CC(=O)O)NC(=O)[C@H](CO)NC(=O)[C@H](CCC(N)=O)NC(=O)[C@H](CS)NC(=O)[C@@H]1CCCN1C(=O)[C@H](CCCCN)NC(=O)[C@@H](N)[C@@H](C)O)C(C)C)C(=O)N[C@@H](CC(N)=O)C(=O)NCC(=O)N[C@@H](Cc1ccccc1)C(=O)N[C@@H](CS)C(=O)N[C@@H](CCCCN)C(=O)N[C@@H](CS)C(=O)N[C@H](C(=O)N[C@@H](CCCNC(=N)N)C(=O)O)C(C)C [NCR13, reference compound] (H-TKPCQSDKDCKKFACRKPKVPKCINGFCKCVR-OH; N-terminus and C-terminus assumed)",6
4,CC[C@H](C)[C@H](NC(=O)[C@H](CS)NC(=O)[C@H](C)NC(=O)[C@H](C)NC(=O)[C@H](C)NC(=O)[C@H](CCCCN)NC(=O)[C@@H]1CCCN1C(=O)[C@H](CCCCN)NC(=O)[C@H](CCCNC(=N)N)NC(=O)[C@H](CS)NC(=O)[C@H](C)NC(=O)[C@H](Cc1ccccc1)NC(=O)[C@H](CCCCN)NC(=O)[C@H](CCCCN)NC(=O)[C@H](CS)NC(=O)[C@H](CC(=O)O)NC(=O)[C@H](CCCCN)NC(=O)[C@H](CC(=O)O)NC(=O)[C@H](CO)NC(=O)[C@H](CCC(N)=O)NC(=O)[C@H](CS)NC(=O)[C@@H]1CCCN1C(=O)[C@H](CCCCN)NC(=O)[C@@H](N)[C@@H](C)O)C(=O)N[C@@H](CC(N)=O)C(=O)NCC(=O)N[C@@H](Cc1ccccc1)C(=O)N[C@@H](CS)C(=O)N[C@@H](CCCCN)C(=O)N[C@@H](CS)C(=O)N[C@H](C(=O)N[C@@H](CCCNC(=N)N)C(=O)O)C(C)C [NCR13_AlaV4] (H-TKPCQSDKDCKKFACRKPKAAACINGFCKCVR-OH; N-terminus and C-terminus assumed),12
